Assay: gradient 5% acetonitrile 3 min, to 50% in 2 min, to 85% in 15 min, held 3 min, 100 µL/min
Conditions: column: Zorbax Extend-C18 2.1 x 50 mm; eluents: water / acetonitrile, 0.1% formic acid
Method in brief: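 Each retention time is based on an adduct peak selected computationally and verified by manual inspection. Measurements used HPLC–quadrupole time-of-flight mass spectrometry in positive and negative ionization mode on mixtures of ~100 pure standards. Chromatography ran on a Zorbax Extend-C18 column (2.1 × 50 mm, 1.8 μm) at 100 μL/min with water and acetonitrile, each containing 0.1% formic acid, and dead and dwell volumes of 40 μL and 900 μL.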

Row | Structure (SMILES) | RP-LC retention time [s]
1 | CC(=O)c1ccc(OC(=O)c2ccc3c(c2)C(=O)N(c2ccccc2)C3=O)cc1 | 751
2 | COc1ccc2c(c1)C1(CCN(S(=O)(=O)c3cc(F)cc(F)c3)C1)C(=O)N2 (stereo not given) | 872
3 | CNC(=O)c1ccc(-c2nc3cc(NS(=O)(=O)c4cc(C)c(C)cc4C)ccc3n2C)cc1 | 713
4 | Cc1ccn(-c2ccc(Nc3ccc(NC(=O)c4ccccc4C(F)(F)F)cc3)nn2)n1 | 809
5 | CSc1cccc(NC(=O)C2CC(=O)N(c3ccc4c(c3)CCN4C(C)=O)C2)c1 (stereo not given) | 730
6 | CN(C)C(CNC(=O)c1cc(-c2ccc3c(c2)OCCO3)on1)c1ccc(F)cc1 (stereo not given) | 681
7 | Cc1noc(C)c1-c1ccc(S(=O)(=O)Nc2cccc(F)c2)cc1 | 916
8 | Cc1ccc2c(NCc3ccc4c(c3)OCO4)c(-c3nc(C)no3)cnc2n1 | 1070
9 | Cc1nc(C(=O)Nc2ccc(Cl)cc2)c(C)o1 | 901
10 | Cc1ccc(NS(=O)(=O)c2cc(-c3[nH]ncc3C(=O)N3CCCCC3)oc2C)c(F)c1 | 806
11 | CCOc1nc2ccccc2nc1N1CCCC(C(=O)Nc2cccc(C(F)(F)F)c2)C1 (stereo not given) | 1370
12 | O=S(=O)(c1cccc(-c2nnc(-c3ccc(Cl)cc3)o2)c1)N1CCCC1 | 1050
13 | Cc1cc([N+](=O)[O-])ccc1NS(=O)(=O)c1cc(Cl)ccc1Cl | 1020
14 | O=C(CCC1CCN(c2cc(NC3CC3)ncn2)CC1)NCCN1CCc2ccccc2C1 | 574
15 | Cc1sc2ccn(C)c(=O)c2c1C(=O)NCc1ccccc1F | 751
16 | COc1cc2c(cc1OC)C(C(=O)NC1CCCCC1)C(c1cccnc1)N(C)C2=O (stereo not given) | 994
17 | CC(C)c1ccc(Nc2c(-c3ccc(N(C)C)cc3)nc3cnccn23)cc1 | 1010
18 | CCN1C(=O)C(C)(C(=O)NCc2ccccc2OC)Oc2cccnc21 (stereo not given) | 843
19 | O=C(C1CCN(c2ncnc3c2nc2n3CCCCC2)CC1)N1CCN(c2ncccn2)CC1 | 669
20 | CCNS(=O)(=O)c1ccc(NC(=O)C2CCN(C(=O)C(C)(C)C)CC2)cc1 | 722
21 | COc1cc(OC)cc(-n2nnc(-c3nsc(Nc4ccccc4OC)n3)c2C)c1 | 1050
22 | Cc1ccc2c(c1)N(Cc1nc(-c3ccc(C)c(C)c3)no1)C(=O)CO2 | 1160

Row | Structure (SMILES) | RP-LC retention time [s]
23 | CC(C)n1cnnc1CC1CN(C(=O)Nc2cc(F)ccc2F)C1 | 631
24 | COc1ccccc1C(=O)Nc1cnc(N2CCCC2)nc1 | 731
25 | Cc1cc(C)cc(-n2ccnc(NC(=O)Nc3ccc(F)c(Cl)c3)c2=O)c1 | 1150
26 | Cc1nnc(NC(=O)CSc2nnc(-c3ccc(=O)n(C)c3)n2C)s1 | 532
27 | Cc1cc(-c2c(C)sc(C)c2S(=O)(=O)N2CCN(c3cccc(Cl)c3)CC2)n[nH]1 | 1040
28 | Fc1ccc(-c2noc(-c3ccc(NCC4CCCO4)nc3)n2)cc1 (stereo not given) | 940
29 | O=C(Nc1ccccc1)C1CCc2sc(C(=O)N3CCOCC3)cc2C1 (stereo not given) | 708
30 | CC(C)CC(=O)Nc1ccc(-c2nc(-c3ccccc3)co2)cc1 | 1100
31 | CC(C)c1ccc(-c2cc3c4nn(CC(=O)NC5CCCC5)c(=O)n4ccn3n2)cc1 | 983
32 | COc1ccccc1NC(=O)Cn1nc2cc(C)nc(-c3cccc(F)c3)n2c1=O | 826
33 | COCn1c(-c2ccc(OC)c(OC)c2)nc2ccccc21 | 573
34 | CC1(C)O[C@@H]2C[C@H]3[C@@H]4C[C@H](F)C5=CC(=O)C=C[C@]5(C)[C@@]4(F)[C@@H](O)C[C@]3(C)[C@]2(C(=O)CO)O1 | 921
35 | Cc1ccccc1NC(=O)C1CCN(S(=O)(=O)c2cc(-c3noc(C4CCC4)n3)cs2)CC1 | 1060
36 | Cc1ccc(-c2cc3c4nnc(CCC(=O)N5CCN(c6ccccn6)CC5)n4ccn3n2)cc1C | 650
37 | CCn1nccc1-c1csc(S(=O)(=O)NCc2cccs2)c1 | 866
38 | CCN(CC)C(=O)c1ccc2c(c1)N(Cc1ccc(C)cc1)C(=O)CO2 | 588
39 | Cc1cc(C)c(-c2noc(C)n2)c(NC(=O)c2ccccc2Br)n1 | 762
40 | COC(=O)c1sc2ccc(NC(=O)C3CCN(S(=O)(=O)c4cccs4)CC3)cc2c1OC | 988
41 | O=C(Nc1ccc2c(c1)OCCO2)c1cccc(-c2cnc(N3CCCC3)nc2)c1 | 845
42 | Nc1cc(C2CCN(C(=O)Nc3cccc(Br)c3)CC2)no1 | 744
43 | CCNS(=O)(=O)c1ccc(-c2c(C)noc2C)cc1 | 762
44 | Cc1ccc(-c2nocc2CCC(=O)NCc2ccccc2)cc1 | 910

Row | Structure (SMILES) | RP-LC retention time [s]
45 | Cc1ccc(CNC(=O)C2CCN(c3nc(C4CCC4)nc4csc(C)c34)CC2)cc1C | 808
46 | Cc1c(C(=O)NC2CCCC2)cnn1-c1ccc(-c2nc(C3CC3)no2)cn1 | 999
47 | O=C(NCc1ccc(F)cc1F)c1csc(C(=O)N2CCCC2)n1 | 795
48 | O=C1NCCCCCN(Cc2ccc(F)cc2F)[C@H]2CCC[C@@H]12 | 623
49 | O=C(CN1C(=O)c2ccccc2C1=O)NCc1nnnn1-c1ccc(Cl)cc1 | 722
50 | O=S(=O)(c1ccc(-c2nnc(C3CCCC3)o2)o1)N1CCCCC1 | 1010
51 | CCc1ccc(S(=O)(=O)N2CCCC(Cn3cnc4cccnc43)C2)cc1 (stereo not given) | 774
52 | CSc1ccccc1NC(=O)C(C)Cn1nc(-c2ccco2)ccc1=O (stereo not given) | 707
53 | CCN(CC)Cc1nc(-c2ccc(N3CCSCC3)nc2)no1 | 632
54 | Cc1ccc(N2N=C(C(=O)N3CCN(CC(C)C)CC3)S(=O)(=O)c3cccnc32)cc1 | 674
55 | CN(C)C(=O)c1cc2c(s1)CCC(C(=O)Nc1ccc3c(c1)OCCO3)C2 (stereo not given) | 764
56 | COc1ccc(NS(=O)(=O)c2c[nH]c3ncccc23)cc1Cl | 729
57 | CN1CCN(c2nc(Nc3ccc4c(c3)OCO4)c3cnn(-c4ccccc4)c3n2)CC1 | 701
58 | Cc1ccc(-c2nc3cccnc3n2C2CCN(S(=O)(=O)c3cccnc3)C2)cc1 (stereo not given) | 728
59 | CC(C)CCNC(=O)N1CCN(Cc2nc3cccnc3n2-c2ccc(F)cc2)CC1 | 667
60 | Fc1ccc(Nc2nc(N3CCOCC3)nc3c2cnn3-c2ccccc2)cc1 | 1170
61 | CSc1ccc(CNC(=O)C2CCCN(c3ncc(-c4ccc(F)cc4)cn3)C2)cc1 (stereo not given) | 1090
62 | Cc1nn(-c2ccc(N3CCCC3)nn2)c(C)c1CCC(=O)N1CCN(c2ccccn2)CC1 | 546
63 | CCC(Oc1ccc(=O)n(-c2ccc(F)cc2)n1)C(=O)Nc1ccc(C(C)=O)cc1 (stereo not given) | 764
64 | COC(=O)c1scc(-c2ccc(C)cc2)c1S(=O)(=O)N1CCN(c2ccccn2)CC1 | 807
65 | O=C(CCC(=O)OCC(=O)c1ccccc1)Nc1ccc2ccccc2c1 | 891

Reference: the METLIN SMRT retention time set (Domingo-Almenara et al. 2019)
